The NIST ThermoML archive (doi:10.1016/j.jct.2006.01.007)

Assay: xn = mol fraction of the nth substance listed
Conditions: 101 kPa, Liquid; for speed of sound: Sing-around technique in a fixed-path interferometer

CC(C)(C)O [2-methylpropan-2-ol] + O
x2 = 0.9615
Conditions	mass density [kg/m3]	speed of sound [m/s]
288.15 K	980.2	1613.7
293.15 K	978.4	1612.4
298.15 K	976.6	1610
303.15 K	973.6	1606.5
308.15 K	971.5	1602.5
313.15 K	968.8	1597

C[S+](C)[O-] [dimethyl sulfoxide] + O
x1 = 0.0385
Conditions	mass density [kg/m3]	speed of sound [m/s]
288.15 K	1019.8	1555.2
293.15 K	1018.1	1562.5
298.15 K	1016.2	1568.5
303.15 K	1014.4	1573.4
308.15 K	1012.3	1577
313.15 K	1010.2	1579.4
